# From publication PMC11671526, “β-caryophyllene sensitizes hepatocellular carcinoma cells to chemotherapeutics and inhibits cell malignancy through targeting MAPK signaling pathway” (Frontiers in Pharmacology, 2024)
# Tested on: HepG2 cells
# Assay: RNA-seq transcriptome analysis of differentially expressed genes
# Type: cell-based, human
# Details: BCP vs control HepG2
# Protocol: The quality and concentration of RNA were examined by MOPS RNA electrophoresis and Eppendorf BioSpectrometer. The transcriptome analysis was performed by BGI-Wuhan China. The RNA-seq dataset of this study is accessible in the Gene Expression Omnibus (GEO) with an access number of GSE276099. The sequence library for each sample was prepared using the BGISEQ-500 platform with a 50-bp single-end (SE50) format. […]2.2.1) was used to align the clean reads to the reference genome and alignment of the clean reads to the reference genes was carried out using Bowtie2 (v2.4.5) ([Langmead and Salzberg, 2012]; [Kim et al., 2015]). Gene expression levels were calculated by RSEM (v1.3.1) ([Li and Dewey, 2011]). Analysis of differential gene expression was performed using edgeR in the Bioconductor software package ([Robinson et al., 2010]). Using a standard protocol, the RNA samples were also examined by reverse transcription and quantitative polymerase chain reaction (RT-qPCR). In brief, for reverse transcription, total RNA (1 μg) and gDNA wiper Mix were incubated at 42°C for 2 min. The samples were immediately incubated with a master mix containing 10 pmol/μL of poly (dT) primers at 37°C for 15 min and 85°C for 5 s. To detect the expression of specific genes by qPCR analysis, gene-specific primers (shown in Supplementary Table S1) were mixed with the ChamQ Universal SYBER qPCR Master Mix and the reaction was conducted using the Roche Lightcycler 480. The GAPDH value was used to normalize the results of each gene. The RNA-seq data of BCP-treated HepG2 cells were screened for DEGs. Gene symbols were turned into Enterz ID using the org.Hs.eg.db Bio-conductor R package. The cluster profiler (v4.6.2) package was used to perform the Kyoto Encyclopedia of Genes and Genomes (KEGG) and Gene Ontology (GO) enrichment analyses ([Wu et al., 2021]). Following the Transcript per million (TPM) data of the dataset, the line chart, and heatmap were plotted using ggplot2 and pheatmap R packages, respectively.
structure (smiles),measurement,setting,value
"C=C1CC/C=C(\C)CC[C@@H]2[C@@H]1CC2(C)C [BCP, β-caryophyllene]",change EGLN3,"gene EGLN3, DEG direction",Down
same,logFC EHF,"gene EHF, RNA-seq",-2.096
same,change EHF,"gene EHF, DEG direction",Down
same,logFC EPHX1,"gene EPHX1, RNA-seq",-0.6153
same,change EPHX1,"gene EPHX1, DEG direction",Down
same,logFC ETNPPL,"gene ETNPPL, RNA-seq",-2.349
same,change ETNPPL,"gene ETNPPL, DEG direction",Down
same,logFC EVA1A,"gene EVA1A, RNA-seq",-3.085
same,change EVA1A,"gene EVA1A, DEG direction",Down
same,logFC F2RL1,"gene F2RL1, RNA-seq",-0.7544
same,change F2RL1,"gene F2RL1, DEG direction",Down
same,logFC FAH,"gene FAH, RNA-seq",0.7875
same,change FAH,"gene FAH, DEG direction",Up
same,logFC FAM13C,"gene FAM13C, RNA-seq",0.699
same,change FAM13C,"gene FAM13C, DEG direction",Up
same,logFC FAM72C,"gene FAM72C, RNA-seq",1.971
same,change FAM72C,"gene FAM72C, DEG direction",Up
same,logFC FBXO2,"gene FBXO2, RNA-seq",-0.7473
same,change FBXO2,"gene FBXO2, DEG direction",Down
same,logFC FBXO27,"gene FBXO27, RNA-seq",-1.235
same,change FBXO27,"gene FBXO27, DEG direction",Down
same,logFC FBXO44,"gene FBXO44, RNA-seq",-0.6394
same,change FBXO44,"gene FBXO44, DEG direction",Down
same,logFC FGFBP1,"gene FGFBP1, RNA-seq",-1.07
same,change FGFBP1,"gene FGFBP1, DEG direction",Down
same,logFC FRMD3,"gene FRMD3, RNA-seq",-1.073
same,change FRMD3,"gene FRMD3, DEG direction",Down
same,logFC FZD4,"gene FZD4, RNA-seq",-0.6196
same,change FZD4,"gene FZD4, DEG direction",Down
same,logFC GALNT13,"gene GALNT13, RNA-seq",1.877
same,change GALNT13,"gene GALNT13, DEG direction",Up
same,logFC GALNTL6,"gene GALNTL6, RNA-seq",1.303
same,change GALNTL6,"gene GALNTL6, DEG direction",Up
same,logFC GBP2,"gene GBP2, RNA-seq",-1.229
same,change GBP2,"gene GBP2, DEG direction",Down
same,logFC GIPR,"gene GIPR, RNA-seq",-0.7811
same,change GIPR,"gene GIPR, DEG direction",Down
same,logFC GJB5,"gene GJB5, RNA-seq",-0.706
same,change GJB5,"gene GJB5, DEG direction",Down
same,logFC GLIS3,"gene GLIS3, RNA-seq",0.614
same,change GLIS3,"gene GLIS3, DEG direction",Up
same,logFC GNAZ,"gene GNAZ, RNA-seq",-0.722
same,change GNAZ,"gene GNAZ, DEG direction",Down
same,logFC GOLGA6L10,"gene GOLGA6L10, RNA-seq",2.939
same,change GOLGA6L10,"gene GOLGA6L10, DEG direction",Up
same,logFC GPER1,"gene GPER1, RNA-seq",-0.7995
same,change GPER1,"gene GPER1, DEG direction",Down
same,logFC GPNMB,"gene GPNMB, RNA-seq",0.8482
same,change GPNMB,"gene GPNMB, DEG direction",Up
same,logFC GSDME,"gene GSDME, RNA-seq",0.7468
same,change GSDME,"gene GSDME, DEG direction",Up
same,logFC H1-2,"gene H1-2, RNA-seq",-0.7028
same,change H1-2,"gene H1-2, DEG direction",Down
same,logFC H2AC6,"gene H2AC6, RNA-seq",-0.6896
same,change H2AC6,"gene H2AC6, DEG direction",Down
same,logFC H2AC18,"gene H2AC18, RNA-seq",-0.6059
same,change H2AC18,"gene H2AC18, DEG direction",Down
same,logFC H2BC5,"gene H2BC5, RNA-seq",-0.8919
same,change H2BC5,"gene H2BC5, DEG direction",Down
same,logFC H2BC11,"gene H2BC11, RNA-seq",-0.8769
same,change H2BC11,"gene H2BC11, DEG direction",Down
same,logFC H2BC12,"gene H2BC12, RNA-seq",-0.7141
same,change H2BC12,"gene H2BC12, DEG direction",Down
same,logFC H2BC21,"gene H2BC21, RNA-seq",-0.7522
same,change H2BC21,"gene H2BC21, DEG direction",Down
same,logFC H3C14,"gene H3C14, RNA-seq",-8.816
same,change H3C14,"gene H3C14, DEG direction",Down
same,logFC H3C15,"gene H3C15, RNA-seq",8.416
same,change H3C15,"gene H3C15, DEG direction",Up
same,logFC HHLA2,"gene HHLA2, RNA-seq",-1.815
same,change HHLA2,"gene HHLA2, DEG direction",Down
same,logFC HIC1,"gene HIC1, RNA-seq",-1.286
same,change HIC1,"gene HIC1, DEG direction",Down
same,logFC HID1,"gene HID1, RNA-seq",-3.326
same,change HID1,"gene HID1, DEG direction",Down
same,logFC HJURP,"gene HJURP, RNA-seq",0.601
same,change HJURP,"gene HJURP, DEG direction",Up
same,logFC HK1,"gene HK1, RNA-seq",-0.5879
same,change HK1,"gene HK1, DEG direction",Down
same,logFC HMG20B,"gene HMG20B, RNA-seq",0.778
same,change HMG20B,"gene HMG20B, DEG direction",Up
same,logFC HMMR,"gene HMMR, RNA-seq",0.8153
same,change HMMR,"gene HMMR, DEG direction",Up
same,logFC HPDL,"gene HPDL, RNA-seq",-0.6564
same,change HPDL,"gene HPDL, DEG direction",Down
same,logFC HSPA5,"gene HSPA5, RNA-seq",0.6968
same,change HSPA5,"gene HSPA5, DEG direction",Up
same,logFC IFI35,"gene IFI35, RNA-seq",0.5837
same,change IFI35,"gene IFI35, DEG direction",Up
same,logFC IFITM1,"gene IFITM1, RNA-seq",-1.457
same,change IFITM1,"gene IFITM1, DEG direction",Down
same,logFC IL34,"gene IL34, RNA-seq",-0.7177
same,change IL34,"gene IL34, DEG direction",Down
same,logFC IQGAP3,"gene IQGAP3, RNA-seq",0.8425
same,change IQGAP3,"gene IQGAP3, DEG direction",Up
same,logFC ITPR1,"gene ITPR1, RNA-seq",0.8272
same,change ITPR1,"gene ITPR1, DEG direction",Up
same,logFC KCNH3,"gene KCNH3, RNA-seq",-0.6893
same,change KCNH3,"gene KCNH3, DEG direction",Down
same,logFC KCNJ18,"gene KCNJ18, RNA-seq",0.8616
same,change KCNJ18,"gene KCNJ18, DEG direction",Up
same,logFC KCNK3,"gene KCNK3, RNA-seq",-0.6699
same,change KCNK3,"gene KCNK3, DEG direction",Down
same,logFC KIAA1614,"gene KIAA1614, RNA-seq",0.6603
same,change KIAA1614,"gene KIAA1614, DEG direction",Up
same,logFC KLHDC7B,"gene KLHDC7B, RNA-seq",0.8443
same,change KLHDC7B,"gene KLHDC7B, DEG direction",Up
same,logFC KLRG1,"gene KLRG1, RNA-seq",-1.335
same,change KLRG1,"gene KLRG1, DEG direction",Down
same,logFC LCK,"gene LCK, RNA-seq",-3.081
same,change LCK,"gene LCK, DEG direction",Down
same,logFC LFNG,"gene LFNG, RNA-seq",-0.7084
same,change LFNG,"gene LFNG, DEG direction",Down
same,logFC LHFPL2,"gene LHFPL2, RNA-seq",-0.5801
same,change LHFPL2,"gene LHFPL2, DEG direction",Down
same,logFC LIMS3,"gene LIMS3, RNA-seq",8.319
same,change LIMS3,"gene LIMS3, DEG direction",Up
